Measured values as given in US20240350493A1 (Kadmon Corporation, LLC, priority 2022, published 2024).
Read-outs that look alike come from different tables or passages of the source.

Key:
[1] = phase I two-part drug-drug interaction study, plasma pharmacokinetics (Example 1); assay type: in vivo, human; conditions: male, human, plasma, oral
Text: The secondary objective was to provide additional information on the safety and tolerability of this dose regimen in healthy males.
This was a single center, non-randomized, DDI study in 35 (Part 1) and 38 (Part 2) healthy males. The key inclusion criterion was males aged 18 to 55 years (inclusive). […] In Part 2, co-administration with omeprazole was studied. The study design is illustrated in FIG. 1.
At least a 2-to 8-day washout occurred between each period to account for a minimum of 5 half-lives of the active moieties dosed in the preceding period.
Blood samples were collected into 6 mL K,EDTA tubes and were processed within 30 minutes of collection. The resultant plasma was then frozen within 90 minutes of collection and stored at […] until shipment to the bioanalytical laboratory.
For each comparison, PK parameters were natural log transformed and analyzed using mixed effect modeling with treatment included as a fixed effect and subject as a random effect. Adjusted geometric mean ratios (GMRs) and corresponding 90% CIs were calculated.

[2] = pharmacokinetics in healthy subjects (label); assay type: in vivo, human
P-gp [3] = biological target: T1, P-gp (Homo sapiens, UniProt P08183); assay: transporter substrate, in vitro; assay type: in vitro ADME
P-gp [4] = biological target: T1, P-gp; assay: transporter inhibition, in vitro; assay type: in vitro ADME; conditions: at clinically relevant concentrations
CYP2C19 = CYP2C19 (Homo sapiens, UniProt P33261); assay: enzyme inhibition, in vitro; assay type: in vitro ADME
UGT1A9 = UGT1A9 (Homo sapiens, UniProt O60656); assay: enzyme inhibition, in vitro; assay type: in vitro ADME
pregnant rats = assay: embryo-fetal development studies in rats; assay type: in vivo, rat
Procedure: In the pilot study, maternal toxicity and embryo-fetal developmental effects were observed. Maternal toxicity (reduced body weight gain) occurred at 150 and 300 mg/kg/day doses. Increased post-implantation loss occurred at 50 and 300 mg/kg/day.

[5] = system: bacterial mutagenicity (Ames); assay: in vitro bacterial mutagenicity (Ames) assay; assay type: cell-based
rats [6] = assay: combined male and female rat fertility study; assay type: in vivo
Text: In a combined male and female rat fertility study, belumosudil-treated male animals were mated with untreated females, or untreated males were mated with belumosudil-treated females.

dogs = assay: general toxicology studies, dogs; assay type: in vivo, dog
rats [7] = assay: general toxicology studies, rats; assay type: in vivo, rat
[8] = single oral dose of radiolabeled belumosudil

T1 sequence (P08183 whole entry): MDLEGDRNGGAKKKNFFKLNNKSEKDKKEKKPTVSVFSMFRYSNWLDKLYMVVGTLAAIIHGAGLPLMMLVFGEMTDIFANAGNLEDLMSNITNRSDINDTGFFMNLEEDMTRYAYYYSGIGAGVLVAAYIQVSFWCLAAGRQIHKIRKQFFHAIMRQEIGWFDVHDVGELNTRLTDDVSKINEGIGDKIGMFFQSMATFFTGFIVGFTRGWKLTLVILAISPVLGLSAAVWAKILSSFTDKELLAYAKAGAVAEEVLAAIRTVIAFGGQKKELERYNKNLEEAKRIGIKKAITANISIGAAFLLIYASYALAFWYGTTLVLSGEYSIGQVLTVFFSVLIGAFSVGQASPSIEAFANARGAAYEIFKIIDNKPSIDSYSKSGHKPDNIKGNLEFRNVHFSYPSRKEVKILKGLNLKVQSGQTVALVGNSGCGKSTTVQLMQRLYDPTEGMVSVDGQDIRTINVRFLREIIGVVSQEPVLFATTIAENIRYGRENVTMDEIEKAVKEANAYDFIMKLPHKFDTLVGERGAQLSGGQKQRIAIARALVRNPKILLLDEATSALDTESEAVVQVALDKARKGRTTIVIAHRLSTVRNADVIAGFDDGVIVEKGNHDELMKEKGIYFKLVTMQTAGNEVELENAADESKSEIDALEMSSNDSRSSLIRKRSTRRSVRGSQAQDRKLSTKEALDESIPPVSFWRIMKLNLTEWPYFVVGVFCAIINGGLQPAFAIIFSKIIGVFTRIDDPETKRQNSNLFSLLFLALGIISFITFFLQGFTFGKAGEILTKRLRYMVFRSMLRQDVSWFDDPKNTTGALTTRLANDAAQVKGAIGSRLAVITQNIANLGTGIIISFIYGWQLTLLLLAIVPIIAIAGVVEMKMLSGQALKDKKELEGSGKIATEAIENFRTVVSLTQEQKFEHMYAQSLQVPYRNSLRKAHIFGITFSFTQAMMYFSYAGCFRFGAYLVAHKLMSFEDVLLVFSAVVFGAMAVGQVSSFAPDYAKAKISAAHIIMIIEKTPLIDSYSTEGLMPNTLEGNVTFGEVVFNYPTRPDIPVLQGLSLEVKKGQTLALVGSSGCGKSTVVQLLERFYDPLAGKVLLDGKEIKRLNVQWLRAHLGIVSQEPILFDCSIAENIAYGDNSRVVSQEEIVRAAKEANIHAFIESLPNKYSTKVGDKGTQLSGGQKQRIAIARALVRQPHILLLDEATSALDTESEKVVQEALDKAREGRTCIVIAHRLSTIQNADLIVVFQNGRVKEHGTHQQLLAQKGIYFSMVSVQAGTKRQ
Chain of UGT1A9 (O60656 26-530): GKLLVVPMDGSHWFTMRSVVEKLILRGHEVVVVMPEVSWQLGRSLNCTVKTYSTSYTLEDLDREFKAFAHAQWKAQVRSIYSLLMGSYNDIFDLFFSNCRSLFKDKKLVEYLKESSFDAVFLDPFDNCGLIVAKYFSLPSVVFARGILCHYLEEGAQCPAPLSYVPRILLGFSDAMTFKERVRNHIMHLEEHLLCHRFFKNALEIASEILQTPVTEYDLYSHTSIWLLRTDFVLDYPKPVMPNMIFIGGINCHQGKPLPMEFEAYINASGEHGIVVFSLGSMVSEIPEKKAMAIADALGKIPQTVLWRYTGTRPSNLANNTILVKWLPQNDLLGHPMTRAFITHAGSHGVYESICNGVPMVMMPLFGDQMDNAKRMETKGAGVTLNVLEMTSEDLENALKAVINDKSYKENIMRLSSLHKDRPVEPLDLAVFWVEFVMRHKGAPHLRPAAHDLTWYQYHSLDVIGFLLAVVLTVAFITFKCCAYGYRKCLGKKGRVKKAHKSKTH
Chain of CYP2C19 (P33261 whole entry): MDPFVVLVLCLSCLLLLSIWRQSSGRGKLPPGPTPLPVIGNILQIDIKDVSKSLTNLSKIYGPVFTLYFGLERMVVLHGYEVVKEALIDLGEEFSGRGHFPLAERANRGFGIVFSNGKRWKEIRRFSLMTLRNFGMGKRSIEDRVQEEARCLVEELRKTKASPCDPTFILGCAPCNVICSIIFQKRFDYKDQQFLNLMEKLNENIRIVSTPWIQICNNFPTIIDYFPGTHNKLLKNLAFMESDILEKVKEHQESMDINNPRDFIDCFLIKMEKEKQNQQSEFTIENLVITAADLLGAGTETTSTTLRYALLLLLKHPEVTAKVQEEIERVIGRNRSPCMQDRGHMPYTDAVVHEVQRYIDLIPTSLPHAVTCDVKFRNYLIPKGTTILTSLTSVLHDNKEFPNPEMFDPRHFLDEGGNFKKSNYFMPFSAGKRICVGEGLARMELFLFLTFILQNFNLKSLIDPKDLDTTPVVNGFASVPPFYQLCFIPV

With `CC(C)NC(=O)COc1cccc(-c2nc(Nc3ccc4[nH]ncc4c3)c3ccccc3n2)c1` [Belumosudil, 2-{3-[4-(1H-indazol-5-ylamino)-2-quinazolinyl]phenoxy}-N-(propan-2-yl) acetamide] the half-life ([1]; 200 mg belumosudil single dose + rabeprazole, read-out: t1/2, arithmetic mean (SD) (converted)) was 10.4 h, the half-life ([1]; 200 mg belumosudil single dose + rabeprazole, read-out: t1/2, geometric mean (geometric CV %) (converted)) was 7.8 h and the AUC from 0 to 24 h ([1]; 200 mg belumosudil single dose + rifampicin, read-out: AUC0-24, arithmetic mean (SD)) was 2630 ng·h/mL. The AUC from 0 to 24 h ([1]; 200 mg belumosudil single dose + rifampicin, read-out: AUC0-24, geometric mean (geometric CV %)) was 2490 ng·h/mL, the AUC(0-inf) ([1]; 200 mg belumosudil single dose + rifampicin, read-out: AUCinf, arithmetic mean (SD)) was 2640 ng·h/mL and the AUC(0-inf) ([1]; 200 mg belumosudil single dose + rifampicin, read-out: AUCinf, geometric mean (geometric CV %)) was 2500 ng·h/mL. For the same compound, the AUC(0-t) ([1]; 200 mg belumosudil single dose + rifampicin, read-out: AUClast, arithmetic mean (SD)) was 2580 ng·h/mL, the AUC(0-t) ([1]; 200 mg belumosudil single dose + rifampicin, read-out: AUClast, geometric mean (geometric CV %)) was 2440 ng·h/mL and the Cmax ([1]; 200 mg belumosudil single dose + rifampicin, read-out: Cmax, arithmetic mean (SD)) was 753 ng/mL. It also gave a Cmax ([1]; 200 mg belumosudil single dose + rifampicin, read-out: Cmax, geometric mean (geometric CV %)) of 712 ng/mL, a Tmax ([1]; 200 mg belumosudil single dose + rifampicin, read-out: Tmax, median (range)) of 3 h and a half-life ([1]; 200 mg belumosudil single dose + rifampicin, read-out: t1/2, arithmetic mean (SD) (converted)) of 2.36 h. The half-life ([1]; 200 mg belumosudil single dose + rifampicin, read-out: t1/2, geometric mean (geometric CV %) (converted)) was 2.17 h, the Cmax ([1]; 200 mg, 200 mg belumosudil BID alone, first dose, read-out: Cmax, arithmetic mean (SD)) was 1880 ng/mL and the Cmax ([1]; 200 mg, 200 mg belumosudil BID alone, first dose, read-out: Cmax, geometric mean (geometric CV %)) was 1790 ng/mL. For the same compound, the Tmax ([1]; 200 mg, 200 mg belumosudil BID alone, first dose, read-out: Tmax, median (range)) was 3 h, the Cmax ([1]; 200 mg, 200 mg belumosudil BID alone, second dose, read-out: Cmax, arithmetic mean (SD)) was 1870 ng/mL and the Cmax ([1]; 200 mg, 200 mg belumosudil BID alone, second dose, read-out: Cmax, geometric mean (geometric CV %)) was 1760 ng/mL. For the same compound, the Tmax ([1]; 200 mg, 200 mg belumosudil BID alone, second dose, read-out: Tmax, median (range)) was 15 h, the AUC from 0 to 24 h ([1]; 200 mg, 200 mg belumosudil BID alone, read-out: AUC0-24, arithmetic mean (SD)) was 17900 ng·h/mL and the AUC from 0 to 24 h ([1]; 200 mg, 200 mg belumosudil BID alone, read-out: AUC0-24, geometric mean (geometric CV %)) was 16800 ng·h/mL. It also gave an AUC(0-inf) ([1]; 200 mg, 200 mg belumosudil BID alone, read-out: AUCinf, arithmetic mean (SD)) of 20100 ng·h/mL, an AUC(0-inf) ([1]; 200 mg, 200 mg belumosudil BID alone, read-out: AUCinf, geometric mean (geometric CV %)) of 18800 ng·h/mL and an AUC(0-t) ([1]; 200 mg, 200 mg belumosudil BID alone, read-out: AUClast, arithmetic mean (SD)) of 20300 ng·h/mL. For the same compound, the AUC(0-t) ([1]; 200 mg, 200 mg belumosudil BID alone, read-out: AUClast, geometric mean (geometric CV %)) was 18900 ng·h/mL, the half-life ([1]; 200 mg, 200 mg belumosudil BID alone, read-out: t1/2, arithmetic mean (SD) (converted)) was 7.15 h and the half-life ([1]; 200 mg, 200 mg belumosudil BID alone, read-out: t1/2, geometric mean (geometric CV %) (converted)) was 6.86 h. The AUC from 0 to 24 h ([1]; 200 mg, 200 mg belumosudil single dose alone, read-out: AUC0-24, arithmetic mean (SD)) was 8830 ng·h/mL, the AUC from 0 to 24 h ([1]; 200 mg, 200 mg belumosudil single dose alone, read-out: AUC0-24, geometric mean (geometric CV %)) was 8430 ng·h/mL and the AUC(0-inf) ([1]; 200 mg, 200 mg belumosudil single dose alone, read-out: AUCinf, arithmetic mean (SD)) was 9580 ng·h/mL. It also gave an AUC(0-inf) ([1]; 200 mg, 200 mg belumosudil single dose alone, read-out: AUCinf, geometric mean (geometric CV %)) of 9080 ng·h/mL, an AUC(0-t) ([1]; 200 mg, 200 mg belumosudil single dose alone, read-out: AUClast, arithmetic mean (SD)) of 9220 ng·h/mL and an AUC(0-t) ([1]; 200 mg, 200 mg belumosudil single dose alone, read-out: AUClast, geometric mean (geometric CV %)) of 8750 ng·h/mL. It also gave a Cmax ([1]; 200 mg, 200 mg belumosudil single dose alone, read-out: Cmax, arithmetic mean (SD)) of 1850 ng/mL, a Cmax ([1]; 200 mg, 200 mg belumosudil single dose alone, read-out: Cmax, geometric mean (geometric CV %)) of 1770 ng/mL and a Tmax ([1]; 200 mg, 200 mg belumosudil single dose alone, read-out: Tmax, median (range)) of 3 h. It also gave a half-life ([1]; 200 mg, 200 mg belumosudil single dose alone, read-out: t1/2, arithmetic mean (SD) (converted)) of 9.28 h, a half-life ([1]; 200 mg, 200 mg belumosudil single dose alone, read-out: t1/2, geometric mean (geometric CV %) (converted)) of 7.89 h and a Tmax ([1]; coadministration of rabeprazole, read-out: delay of median Tmax) of 2 h. The “increase in AUC with high-fat and high-calorie meal vs fasted” value ([2]; single dose) was 2 times, the “increase in Cmax with high-fat and high-calorie meal vs fasted” value ([2]; single dose) was 2.2 times and the “radioactivity recovered in feces” value [2, 8] was 85%. The “radioactivity recovered in urine” value [2, 8] was “less than 5%”, the “recovered in feces as unchanged” value [2, 8] was 30% and the P-gp substrate (P-gp [3]) was “substrate”. For the same compound, the P-gp inhibition (P-gp [4]) was “inhibits”, the CYP2C19 inhibition (CYP2C19) was “inhibitor” and the UGT1A9 inhibition (UGT1A9) was “inhibitor”. For the same compound, the “doses with fetal malformations” value (pregnant rats; pilot study, oral, period of organogenesis) was at least 50 mg/kg/day, the “maternal exposures (AUC) with adverse developmental outcomes, times human exposure at recommended dose” value (pregnant rats; rat) was at least 3 times and the genotoxicity [5] was “not genotoxic”. The “dose with increased pre-or post-implantation loss and decreased number of viable embryos” value (rats [6]; female rats, treated or mated with treated males) was 275 mg/kg/day, the “dose with abnormal sperm findings and testes/epididymis organ changes” value (rats [6]; male rats) was 275 mg/kg/day and the “dose with reduced fertility” value (rats [6]; treated males or females) was 275 mg/kg/day. The “dose with spermatozoa degeneration” value (dogs) was 35 mg/kg/day and the “dose with decreased follicular development in ovaries” value (rats [7]) was 275 mg/kg/day.
